Test results as given in patent US20260356834A1, “ANTICONVULSIVE COMPOUNDS AND USES THEREOF” (Jazz Pharmaceuticals Research UK Limite, priority 2023, published 2026).
Marks after values point to notes of the source that are not given here.

Experiments:
Format in all cases: in vivo
[1] = test system: C57BL/6J mice; test: mouse maximal electroshock seizure threshold model (MEST)
Protocol: Vehicle=1:2:17 ethanol:Solutol® (Kolliphor® HS 15):saline: 1 mL of ethanol and 2 mL of solutol were warmed to 60 °C and 17 mL of 0.9% saline was added slowly. […]
Vehicle=0.5% HPMC and 0.1% Tween 80:0.5% HPMC and 0.1% Tween 80 in water.

[2] = test system: RjOrl: Swiss mice; test: mouse 6 Hz (44 mA) model of partial seizures; conditions: for Mean Forelimb Clonus +/− SEM: score 0-2; for Change from vehicle 2 (forelimb clonus): vs vehicle 2 (1:2:17)
Text: The 6 Hz (44 mA) model of partial seizures, which detects anticonvulsant activity, follows that described by Brown et al. 1953.
[…] A decrease in forelimb clonus score is indicative of protection from seizure and an anticonvulsive effect.
When conducted at a 44 mA stimulus intensity in mice, the 6 Hz test can differentiate compounds with potential for the treatment of focal-onset seizures that are often resistant to current anti-epileptic drugs.
Male RjOrl: Swiss mice (Janvier Labs, 53940 Le Genest-Saint-Isle, France), 5 weeks old, weighing 27-38 g at the beginning of the experiment. Animals were acclimatized to the Test Facility for at least 5 days after delivery and randomly housed in groups of 5 to 8 in macrolon cages on wood litter with free access to food and water.
(§1) The animal house was maintained under artificial lighting (12 hours) between 7:00 and 19:00 in a controlled ambient temperature of 22±2 °C and relative humidity between 30-70%.
Before transcorneal stimulation, a drop of tetracaine solution (1%) was applied on each eye of the mouse for local anesthesia. Between 1-10 minutes later and at the designated pre-treatment (see below), the mice were administered a rectangular current (44 mA, rectangular pulse: 0.2 ms pulse width, 3 s duration, (6 Hz) via corneal electrodes connected to a constant current shock generator (Ugo Basile: type 7801).
The results for the number of seizures as reflected by forelimb clonus were recorded immediately after current administration. Forelimb clonus was scored as absent (0=no forelimb clonus), mild (1=clonus with one forelimb) and strong (2=clonus with both forelimbs). The experimenters were blinded to the treatment. […]
The administration volume was 10 mL/kg.
Due to the number of animals tested, the experiment was divided in 2 sub-experiments on 2 consecutive days with equivalent numbers of mice per group and per sub-experiment.
Data were discrete values so considered to be non-normally distributed based on validation data, therefore non-parametric tests were utilized. Quantitative data (scores) with the test substance were analyzed by comparing test compound-treated groups with the 1:2:17 vehicle control using Kruskal-Wallis test with Dunn's multiple comparisons test when the Kruskal-Wallis test was significant. Quantitative data with the reference substance were analyzed using Mann-Whitney U test as compared to saline vehicle.

[3] = test system: DBA/2 mice; test: mouse audiogenic seizure test; conditions: for Clonic convulsion - presence, Total / Tonic convulsion - presence, Total / Wild running - presence, Total: number of mice, n = 10
Text: The Audiogenic Seizure Test, which detects anticonvulsant activity, follows that described by Durmüller et al., 1993. Mice of the DBA/2 strain undergo an age-dependent sequence of convulsions (wild-running, clonic convulsion, tonic convulsion and respiratory arrest) within 60 seconds of exposure to a loud sound of 110-120 dB. The type of convulsions are consistent with aspects of generalised seizure in humans.
Male DBA/2 mice (3-4 weeks old) were supplied by Janvier Labs (53940 Le Genest-Saint-Isle, France); weight range 6-13 g at the beginning of the experiment. Animals were acclimatized to the Test Facility for 1 day after delivery and randomly housed in groups of 5 in macrolon cages on wood litter with free access to food and water.
as §1
Mice were individually transferred (at 3-5 minutes intervals) from the preparation room into an adjacent experimental room and body temperature was measured using a rectal thermometer (Digital Laboratory Thermometer: Model BAT-12). Immediately after, they were placed in a Plexiglas jar (Diameter=40 cm; Height=35 cm) mounted with an electric bell (110-120 dB, supplier Leroy Merlin, France). Upon activating the bell, the occurrences and latencies to wild running fits, clonic and tonic seizures were measured. Deaths were also recorded. The bell was activated until a tonic seizure occurred, or for a maximum of 60 seconds.
The experiment included groups of 10 mice per group. Experimenters were only partially blinded to treatment group as pre-treatment times were different.
The test substance was evaluated at various doses, administered i.p. (10 ml/kg) 15 or 30 minutes before the test, and compared with a vehicle control group.
Due to the number of animals tested, the experiment was divided in 2 sub-experiments on 2 separate days (7 days apart) with 5 mice per group in each sub-experiment.
Data were tested for normality using d'Agostino-Pearson Test and found to not follow a normal distribution. Statistical outliers were not identified or removed because no behavioural outliers were identified. Quantitative data (latencies) with the test substance were analyzed by comparing treated groups with vehicle control using Kruskal-Wallis test followed by Dunn's multiple comparisons test. Quantitative data with the reference substance were analyzed using Mann-Whitney U test. Quantal data (frequencies) were analyzed by comparing treated groups with vehicle control using Fisher's Exact Probability test.

Q: For `CCCc1cc(O)c(-c2c(C)ccn3ccnc23)c(O)c1` [Compound 2, 2-(7-Methylimidazo[1,2-a]pyridin-8-yl)-5-propylbenzene-1,3-diol], which “CC50 +/− SEM” value ([1]; 1 mg/kg i.p., 15 min, 1:2:17 ethanol:Solutol:saline) is on record?
A: 26.0 ± 0.4 mA

Q: And the “Change from vehicle (CC50)” value ([1]; 1 mg/kg i.p., 15 min, vs 1:2:17 ethanol:Solutol:saline vehicle)?
A: 11%^###

Q: What about the “CC50 +/− SEM” value ([1]; 5 mg/kg i.p., 15 min, 1:2:17 ethanol:Solutol:saline) of the same compound?
A: 29.4 ± 0.9 mA

Q: What about the “Change from vehicle (CC50)” value ([1]; 5 mg/kg i.p., 15 min, vs 1:2:17 ethanol:Solutol:saline vehicle) of the same compound?
A: 26%^###

Q: And the “CC50 +/− SEM” value ([1]; 10 mg/kg p.o., 30 min, HPMC vehicle)?
A: 27.0 ± 0.7 mA

Q: What about the “Change from vehicle (CC50)” value ([1]; 10 mg/kg p.o., 30 min, vs HPMC vehicle) of the same compound?
A: 17%***

Q: And the “CC50 +/− SEM” value ([1]; 30 mg/kg i.p., 30 min, 1:2:17 ethanol:Solutol:saline)?
A: 38.2 ± 1.5 mA

Q: And the “Change from vehicle (CC50)” value ([1]; 30 mg/kg i.p., 30 min, vs 1:2:17 ethanol:Solutol:saline vehicle)?
A: 64%^###

Q: What about the “CC50 +/− SEM” value ([1]; 50 mg/kg p.o., 30 min, HPMC vehicle) of the same compound?
A: 38.2 ± 0.5 mA

Q: What about the “Change from vehicle (CC50)” value ([1]; 50 mg/kg p.o., 30 min, vs HPMC vehicle) of the same compound?
A: 66%***

Q: And the “CC50 +/− SEM” value ([1]; 60 mg/kg i.p., 30 min, 1:2:17 ethanol:Solutol:saline)?
A: 59.5 ± 2.6 mA

Q: What about the “Change from vehicle (CC50)” value ([1]; 60 mg/kg i.p., 30 min, vs 1:2:17 ethanol:Solutol:saline vehicle) of the same compound?
A: 155%^###

Q: What about the “Mean Forelimb Clonus +/− SEM” value ([2]; 10 mg/kg i.p., 30 min) of the same compound?
A: 0.7 ± 0.1

Q: And the “Change from vehicle 2 (forelimb clonus)” value ([2]; 10 mg/kg i.p., 30 min)?
A: −22%

Q: And the “Mean Forelimb Clonus +/− SEM” value ([2]; 30 mg/kg i.p., 15 min)?
A: 0.7 ± 0.1

Q: What about the “Change from vehicle 2 (forelimb clonus)” value ([2]; 30 mg/kg i.p., 15 min) of the same compound?
A: −22%

Q: And the “Mean Forelimb Clonus +/− SEM” value ([2]; 60 mg/kg i.p., 30 min)?
A: 0.7 ± 0.1

Q: What about the “Change from vehicle 2 (forelimb clonus)” value ([2]; 60 mg/kg i.p., 30 min) of the same compound?
A: −22%

Q: And the sedation ([2]; 100 mg/kg i.p.)?
A: slight sedation observed

Q: What about the “Mean Forelimb Clonus +/− SEM” value ([2]; 100 mg/kg i.p., 30 min) of the same compound?
A: 0.3 ± 0.1

Q: What about the “Change from vehicle 2 (forelimb clonus)” value ([2]; 100 mg/kg i.p., 30 min) of the same compound?
A: −67%

Q: And the adverse signs ([2]; 10, 30 or 60 mg/kg i.p.)?
A: no adverse signs were noted

Q: What about the “latency to tonic convulsions (significance in words)” value ([3]; 3 mg/kg i.p. vs vehicle) of the same compound?
A: no significant differences

Q: And the “Clonic convulsion - latency, Change from vehicle” value ([3]; 3 mg/kg i.p., 30 min)?
A: +10%

Q: And the “Clonic convulsion - presence, Change from vehicle” value ([3]; 3 mg/kg i.p., 30 min)?
A: +25%

Q: And the “Tonic convulsion - latency, Change from vehicle” value ([3]; 3 mg/kg i.p., 30 min)?
A: +23%

Q: What about the “Tonic convulsion - presence, Change from vehicle” value ([3]; 3 mg/kg i.p., 30 min) of the same compound?
A: +14%

Q: And the “Wild running - latency, Change from vehicle” value (shortened to “Wild running - latency, Change”) ([3]; 3 mg/kg i.p., 30 min)?
A: +16%

Q: What about the “Wild running - presence, Change from vehicle” value ([3]; 3 mg/kg i.p., 30 min) of the same compound?
A: +11%

Q: What about the “Clonic convulsion - presence, Total” value ([3]; 3 mg/kg i.p., 30 min) of the same compound?
A: 10

Q: What about the “Tonic convulsion - presence, Total” value ([3]; 3 mg/kg i.p., 30 min) of the same compound?
A: 8

Q: And the “Wild running - presence, Total” value ([3]; 3 mg/kg i.p., 30 min)?
A: 10

Q: What about the “latency to tonic convulsions (significance in words)” value ([3]; 10 mg/kg i.p. vs vehicle) of the same compound?
A: significantly increased

Q: What about the “Clonic convulsion - latency, Change from vehicle” value ([3]; 10 mg/kg i.p., 30 min) of the same compound?
A: +44%

Q: And the “Clonic convulsion - presence, Change from vehicle” value ([3]; 10 mg/kg i.p., 30 min)?
A: −13%

Q: What about the “Tonic convulsion - latency, Change from vehicle” value ([3]; 10 mg/kg i.p., 30 min) of the same compound?
A: +400%*

Q: What about the “Tonic convulsion - presence, Change from vehicle” value ([3]; 10 mg/kg i.p., 30 min) of the same compound?
A: −57%

Q: And the “Wild running - latency, Change” value ([3]; 10 mg/kg i.p., 30 min)?
A: +27%

Q: And the “Wild running - presence, Change from vehicle” value ([3]; 10 mg/kg i.p., 30 min)?
A: −11%

Q: What about the “Clonic convulsion - presence, Total” value ([3]; 10 mg/kg i.p., 30 min) of the same compound?
A: 7

Q: What about the “Tonic convulsion - presence, Total” value ([3]; 10 mg/kg i.p., 30 min) of the same compound?
A: 3

Q: What about the “Wild running - presence, Total” value ([3]; 10 mg/kg i.p., 30 min) of the same compound?
A: 8

Q: What about the “latency to clonic convulsions (significance in words)” value ([3]; 30 mg/kg i.p. vs vehicle) of the same compound?
A: significantly increased

Q: What about the “latency to tonic convulsions (significance in words)” value ([3]; 30 mg/kg i.p. vs vehicle) of the same compound?
A: significantly increased

Q: What about the “latency to wild running (significance in words)” value ([3]; 30 mg/kg i.p. vs vehicle) of the same compound?
A: significantly increased

Q: And the “Clonic convulsion - latency, Change from vehicle” value ([3]; 30 mg/kg i.p., 15 min)?
A: +574%**

Q: What about the “Tonic convulsion - latency, Change from vehicle” value ([3]; 30 mg/kg i.p., 15 min) of the same compound?
A: +400%**

Q: What about the “Wild running - latency, Change” value ([3]; 30 mg/kg i.p., 15 min) of the same compound?
A: +1076%***

Q: What about the “Clonic convulsion - presence, Total” value ([3]; 30 mg/kg i.p., 15 min) of the same compound?
A: 2

Q: What about the “Tonic convulsion - presence, Total” value ([3]; 30 mg/kg i.p., 15 min) of the same compound?
A: 0

Q: What about the “Wild running - presence, Total” value ([3]; 30 mg/kg i.p., 15 min) of the same compound?
A: 2

Q: What about the “latency to clonic convulsions (significance in words)” value ([3]; 3 and 10 mg/kg i.p. vs vehicle) of the same compound?
A: no significant differences

Q: What about the “latency to wild running (significance in words)” value ([3]; 3 and 10 mg/kg i.p. vs vehicle) of the same compound?
A: no significant differences

Q: What about the “number of mice displaying clonic convulsions (significance in words)” value ([3]; 3 or 10 mg/kg i.p.) of the same compound?
A: no significant differences

Q: What about the “number of mice displaying tonic convulsions (significance in words)” value ([3]; 3 or 10 mg/kg i.p.) of the same compound?
A: no significant differences

Q: What about the “number of mice displaying wild running (significance in words)” value ([3]; 3 or 10 mg/kg i.p.) of the same compound?
A: no significant differences
